From patent publication US10759785B2, “Compounds” (ENTERPRISE THERAPEUTICS LIMITED, priority 2016, dated 2020)
Counter-ions that a name gives are not always drawn.

Tests used:
Type in all cases: in vitro ADME
[1] = Microsomal stability (human microsomes); settings: pH 7.4, 1 μM test compound, 0.5 mg/mL protein, 1 mM NADPH, 37° C., read-out: Averages. Mic Half Life Human
Experimental: (§1) Example 28—Microsomal Stability
(§2) Microsomes (rat and human) were obtained from Bioreclamation. Test compound stock solutions in DMSO (10 mM) were diluted with DMSO to 2 mM. Further dilution was completed to achieve a 100 μM stock (final concentrations; 91.5% Acetonitrile: 8.5% DMSO). Final test compound concentration in incubation was 1 μM (<0.1% DMSO). The following probe substrates were used: verapamil, propranolol, metoprolol and phenacetin (rat) at a final incubation concentration of 1 μM. Assay buffer—Solution 1: 17.4 g potassium phosphate dibasic anhydrous (K2HPO4, 0.1 M) dissolved in 1 L deionised water. Solution 2: 13.6 g potassium phosphate monobasic anhydrous (KH2PO4, 0.1 M) dissolved in 1 L deionised water. Potassium phosphate solutions 1 and 2 were combined to form a pH 7.42 solution at 37° C. pH 7.4 with 2 mM magnesium chloride. NADPH (10 mM)—diluted in deionised water. Frozen microsomes were thawed at 37° C. Microsomes were diluted in assay buffer to achieve a final protein concentration of 0.5 mg/mL and 1 mM NADPH. The following procedure was completed on a Perkin Elmer Janus robotic platform in 96 well format: The microsomal incubation plate was transferred to a heater shaker at 300 rpm and solution heated to 37° C. for 10 min pre-warm. A no co-factor control at 0 and 45 min and one replicates of each test compound was included in every assay. Microsomes were incubated at 37° C., on a shaker set at 300 rpm throughout the assay. At each timepoint (0, 5, 15, 30, 45 min) 50 μL of sample was removed from the 96-well and added to 200 μL of quench solution (acetonitrile containing 0.1% formic acid and imipramine/labetalol, 200 nM). Samples were diluted 1:1 with water using the Janus Robot and analysed by LC-MS/MS.

[2] = Microsomal stability (rat microsomes); settings: pH 7.4, 1 μM test compound, 0.5 mg/mL protein, 1 mM NADPH, 37° C., read-out: Averages. Mic Half Life Rat
Experimental: as §1, §2

[3] = Hepatic stability (rat cryopreserved hepatocytes); settings: pH 7.4, 1 μM test compound, 1×10^6 cells/mL, 37° C., read-out: Averages. Hep Half Life Rat
Experimental: (§3) Example 29—Hepatic Stability
(§4) Cryopreserved hepatocytes (rat and human) were obtained from Bioreclamation. Test compound stock solutions in DMSO (10 mM) were diluted with DMSO to 4 mM. Further dilution was completed to achieve a 100 μM stock (5 μL of 4 mM in 195 μL of 50:50 DMSO:hepatocyte buffer). Final test compound concentration in incubation was 1 μM. The following probe substrates were used: testosterone and carbamazepine at a final incubation concentration of 1 μM. Hepatocyte buffer was prepared (Williams E media containing phenol red and Glutamax™, 15 mM HEPES, warmed to 37° C., pH7.4 with NaOH). Cells were removed from liquid nitrogen, thawed in a waterbath, decanted into 50 mL of pre-warmed Cryopreserved Hepatocyte Recovery Media (LifeTechnologies) and centrifuged. Supernatant fraction was removed, cells were re-suspended in hepatocyte buffer and counted by trypan blue exclusion. Cell viability of >80% was required for all assays. Cells were re-suspended to 1×10^6/mL and 198 μL cell suspension added to each 96-well. 2 μL of 100 μM compound stock solution was added to relevant wells to initiate the incubation. A no cell control and two replicates of each test compound was included in every assay. Cells were incubated at 37° C., on a shaker set at 300 rpm. At each timepoint (0, 15, 30, 45, 60, 90 min) 20 μL of sample was removed from the 96-well and added to 80 μL of quench solution (acetonitrile containing 0.1% formic acid and imipramine/labetalol, 200 nM). Samples were diluted 1:1 with water using the Janus Robot and analysed by LC-MS/MS.

[4] = Hepatic stability (human cryopreserved hepatocytes); settings: cryopreserved hepatocytes, pH 7.4, 1 μM test compound, 1×10^6 cells/mL, 37° C., read-out: Averages. Hep Half Life Human
Experimental: as §3, §4

SMILES: CCn1c(CNC(=O)c2nc(Br)cnc2N)[n+](CC)c2ccc(-c3cnn(C4CCN(C(=N)N)CC4)c3)cc21.O=CO.O=C[O-] [Example 22, 2-{[(3-amino-6-bromopyrazin-2-yl)formamido]methyl}-6-[1-(1-carbamimidoylpiperidin-4-yl)-1H-pyrazol-4-yl]-1,3-diethyl-1H-1,3-benzodiazol-3-ium formic acid formate]
- half-life at 1 μM [1]: > 2.3 h
- half-life at 1 μM [2]: > 2.3 h
- half-life at 1 μM [3]: 1.5 h
- half-life at 1 μM [4]: 1.12 h

SMILES: CCn1c(CNC(=O)c2nc(Br)cnc2N)[n+](CC)c2ccc(-c3cnn(C4CCN(C[C@H](O)[C@@H](O)[C@H](O)[C@H](O)CO)CC4)c3)cc21.O=CO.[Cl-] [Example 23, 2-{[(3-amino-6-bromopyrazin-2-yl)formamido]methyl}-1,3-diethyl-6-(1-{1-[(2S,3R,4R,5R)-2,3,4,5,6-pentahydroxyhexyl]piperidin-4-yl}-1H-pyrazol-4-yl)-1H-1,3-benzodiazol-3-ium formic acid chloride]
- half-life at 1 μM [1]: > 2.3 h
- half-life at 1 μM [2]: > 2.3 h
- half-life at 1 μM [3]: 2.07 h
- half-life at 1 μM [4]: 1.2 h

SMILES: CCn1c(CNC(=O)c2nc(Br)cnc2N)[n+](CC)c2ccc(OCCNC(=O)OC(C)(C)C)cc21.O=C[O-] [Example 24, 2-{[(3-amino-6-bromopyrazin-2-yl)formamido]methyl}-6-(2-{[(tert-butoxy)carbonyl]amino}ethoxy)-1,3-diethyl-1H-1,3-benzodiazol-3-ium formate]
- half-life at 1 μM [1]: 0.983 h
- half-life at 1 μM [2]: 0.617 h
- half-life at 1 μM [3]: 0.7 h
- half-life at 1 μM [4]: 1.22 h

SMILES: CCn1c(CNC(=O)c2nc(Br)cnc2N)[n+](CC)c2ccc(OCCN)cc21.Cl.[Cl-] [Example 25, 2-{[(3-Amino-6-bromopyrazin-2-yl)formamido]methyl}-6-(2-aminoethoxy)-1,3-diethyl-1H-1,3-benzodiazol-3-ium hydrochloride chloride]
- half-life at 1 μM [1]: > 2.3 h
- half-life at 1 μM [2]: > 2.3 h
- half-life at 1 μM [3]: 0.983 h
- half-life at 1 μM [4]: > 4 h

SMILES: CCn1c(CNC(=O)c2nc(C#N)cnc2N)[n+](CC)c2ccc(OC)cc21 [Example 26, 2-{[(3-amino-6-cyanopyrazin-2-yl)formamido]methyl}-1,3-diethyl-6-methoxy-1H-1,3-benzodiazol-3-ium formate]
- half-life at 1 μM [1]: > 2.3 h
- half-life at 1 μM [2]: < 0.05 h
- half-life at 1 μM [3]: 0.383 h
- half-life at 1 μM [4]: 3.87 h
